Data as given in US9309247B2, “2-substituted imidazo[4,5-D]phenanthroline derivatives and their use in the treatment of cancer” (Aptose Biosciences Inc., priority 2013, dated 2016).
Read-outs that look alike come from different tables or passages of the source.

Experiments:
[1] = test system: human renal cancer cells ACHN; assay: XTT cell proliferation assay, ACHN; type: cell-based; conditions: 5 days incubation, read-out: Antiproliferative activity, Kidney ACHN
Description: (§1) Exemplary compounds 1-8 were tested for anti-cancer activity in vitro using human renal cancer cells (ACHN and CAK-1), human pancreatic cells (BXPC3 and SU-86-86), human prostate cancer cell (DU14), human colon carcinoma cells (HT-29 and KM-12), leukemia cells (HL60), brain cancer/tumour cells (SK-A-AS, U87-MG), and human non-small cell lung cancer cells (H460). Compounds 1-8 are the specific embodiments of Formula (I) and Formula (IV) as described above in this application.
(§2) The cells were maintained as a monolayer in a growth medium; McCoy's 5A modified medium (Sigma, St. Louis, Mo.), supplemented with 2 mM L-glutamine (Gibco, Grand Island, N.Y.), 10% fetal bovine serum (FBS) (Multicell, WISENT Inc. St-Bruno, QC), antibiotic-antimycotic (Multicell), at 37° C. in a 5% CO2-humidified incubator. Cells were transferred onto 150 mm tissue culture plates and grown until sub-confluency (70-80%) prior to their use. The in vitro antiproliferative activity of compounds was evaluated by incubating the cells with varying concentrations of exemplary compounds as shown in Table 1 for 5 days. The efficacy of these compounds in this cell proliferation assay was measured based in the ability of live cells to reduce the tetrazolium salt XTT to orange colored compounds of formazan (XTT cell proliferation kit IT, Roche Applied Science, Montreal, QC).

[2] = test system: human renal cancer cells CAKI-1; assay: XTT cell proliferation assay, CAKI-1; type: cell-based; conditions: 5 days incubation, read-out: Antiproliferative activity, Kidney CAKI-1
Description: as §1, §2

[3] = test system: human pancreatic cells BXPC3; assay: XTT cell proliferation assay, BXPC3; type: cell-based; conditions: 5 days incubation, read-out: Antiproliferative activity, Pancreas BXPC3
Description: as §1, §2

[4] = test system: human pancreatic cells SU-86-86; assay: XTT cell proliferation assay, SU-86-86; type: cell-based; conditions: 5 days incubation, read-out: Antiproliferative activity, Pancreas SU-86-86
Description: as §1, §2

[5] = test system: human prostate cancer cell DU14; assay: XTT cell proliferation assay, DU14; type: cell-based; conditions: 5 days incubation, read-out: Antiproliferative activity, Pros. DU14
Description: as §1, §2

[6] = test system: human colon carcinoma cells KM12; assay: XTT cell proliferation assay, KM12; type: cell-based; conditions: 5 days incubation, read-out: Antiproliferative activity, Colon KM12
Description: as §1, §2

[7] = test system: human colon carcinoma cells HT-29; assay: XTT cell proliferation assay, HT-29; type: cell-based; conditions: 5 days incubation, read-out: Antiproliferative activity, Colon HT-29
Description: as §1, §2

leukemia cells HL60 = assay: XTT cell proliferation assay, HL60; type: cell-based, human; conditions: 5 days incubation, read-out: Antiproliferative activity, Leuk. HL60
Description: as §1, §2

[8] = test system: brain cancer/tumour cells SK-N-AS; assay: XTT cell proliferation assay, SK-N-AS; type: cell-based, human; conditions: 5 days incubation, read-out: Antiproliferative activity, Brain SK-N-AS
Description: as §1, §2

[9] = test system: brain cancer/tumour cells U87-MG; assay: XTT cell proliferation assay, U87-MG; type: cell-based, human; conditions: 5 days incubation, read-out: Antiproliferative activity, Brain U87-MG
Description: as §1, §2

[10] = test system: non-small cell lung cancer cells H226; assay: XTT cell proliferation assay, H226; type: cell-based, human; conditions: 5 days incubation, read-out: Antiproliferative activity, NSCLC H226
Description: [The procedure below names another cell line; the source lists this cell line under the same test.] as §1, §2

[11] = test system: non-small cell lung cancer cells HOP-92; assay: XTT cell proliferation assay, HOP-92; type: cell-based, human; conditions: 5 days incubation, read-out: Antiproliferative activity, NSCLC HOP-92
Description: [The procedure below names another cell line; the source lists this cell line under the same test.] as §1, §2

[12] = test system: non-small cell lung cancer cells HOP-62; assay: XTT cell proliferation assay, HOP-62; type: cell-based, human; conditions: 5 days incubation, read-out: Antiproliferative activity, NSCLC HOP-62
Description: [The procedure below names another cell line; the source lists this cell line under the same test.] as §1, §2

[13] = test system: human non-small cell lung cancer cells H460; assay: XTT cell proliferation assay, H460; type: cell-based; conditions: 5 days incubation, read-out: Antiproliferative activity, NSCLC H460
Description: as §1, §2

[14] = test system: non-small cell lung cancer cells EKVX; assay: XTT cell proliferation assay, EKVX; type: cell-based, human; conditions: 5 days incubation, read-out: Antiproliferative activity, NSCLC EKVX
Description: [The procedure below names another cell line; the source lists this cell line under the same test.] as §1, §2

[15] = test system: Human Burkitt's lymphoma Raji cells; assay: Cell growth inhibition assay, Raji; type: cell-based; conditions: five days of incubation, XTT; read-out: IC50 Raji (hs)
Description: (§3) In this study, compounds 1-8 were screened in vitro against a panel of four mouse lymphoma cell lines and two human lymphoma cell line for cell growth inhibition activity. Following treatment, half maximal inhibitory concentrations (IC50) were determined with the objective of selecting the most efficacious compounds for evaluation of in vitro absorption, distribution, metabolism, and excretion (ADME) screening.
Human Burkitt's lymphoma Raji cells (ATCC CCL-86) were grown in suspension in Roswell Park Memorial Institute (RPMI) 1640 medium supplemented with 10% fetal bovine serum (FBS), 10 mM HEPES KOH pH 7.4, and 2 mM sodium pyruvate at 37° C. in an atmosphere of 5% CO2 in air. Logarithmically growing cells were routinely sub-cultured twice weekly. Briefly, cells were collected by centrifugation, resuspended in pre-warmed media, and diluted 1:10 into a 75 cm^2 flask.
(§4) Cells were subcultured and 4×10^3 cells (in 50 μL) were transferred to each well in a Falcon 96-well tissue culture plate. Exemplary compounds were dissolved in pure dimethyl sulphoxide (DMSO) at a concentration of 10 mM. From this 10 mM stock solution, 12 successive serial dilutions were made in DMSO (2.5 fold dilutions), ranging from 0.52 μM to 10 mM. Using these stock dilutions, 5 μL of each were added to 500 μL of media, and 50 μL of this was added to the cells. The final concentrations being tested ranged from 0.0026 μM to 50 μM. Each concentration was tested in triplicate, and DMSO and untreated cells were also included as controls. After five days of incubation with the compounds, cell viability was determined using the XTT cell proliferation kit (Roche, Cat. No. 11 465 015 001). Following the XTT protocol, 4.5-24 hours after addition of the reagent, the plates were read in a μQuant 96-well plate spectrophotometer (Biotek Instruments Inc.) and the results analyzed to determine the IC50.

[16] = test system: human Burkitt's lymphoma Ramos cells; assay: Cell growth inhibition assay, Ramos; type: cell-based; conditions: five days of incubation, XTT; read-out: IC50 Ramos (hs)
Description: as §3
(§5) Similarly, human Burkitt's lymphoma Ramos cells (ATCC CRL-1596) were grown in suspension in Roswell Park Memorial Institute (RPMI) 1640 medium supplemented with 10% fetal bovine serum (FBS), 10 mM HEPES KOH pH 7.4, and 2 mM sodium pyruvate. Mouse P388D1 (ATCC CCL-46) and WR19L (ATCC TIB-52) cells were grown in suspension in Dulbecco's Modified Eagle Medium (DMEM) with 10% fetal bovine serum (FBS), 10 mM HEPES, and 2 mM sodium pyruvate. Mouse WEHI231 (ATCC CRL-1702) and EL4 (ATCC TIB-39) cells were grown in suspension in DMEM with 10% fetal bovine serum (FBS), 10 mM HEPES KOH pH 7.4, 2 mM sodium pyruvate, and 0.05 mM β-mercaptoethanol. All cells were maintained at 37° C. in an atmosphere of 5% CO2 in air. Logarithmically growing cells were routinely sub-cultured twice weekly. Briefly, cells were collected by centrifugation, resuspended in pre-warmed media, and diluted 1:10 into a 75 cm^2 flask.
as §4

EL4 (mouse, lymphoma) = assay: Cell growth inhibition assay, EL4; type: cell-based; conditions: five days of incubation, XTT; read-out: IC50 EL4 (ms)
Description: as §3, §5, §4

P388D1 (mouse, lymphoma) = assay: Cell growth inhibition assay, P388D1; type: cell-based; conditions: five days of incubation, XTT; read-out: IC50 P388D1 (ms)
Description: as §3, §5, §4

[17] = test system: WEHI 231 (mouse, B-cell lymphoma); assay: Cell growth inhibition assay, WEHI231; type: cell-based; conditions: five days of incubation, XTT; read-out: IC50 WEHI231 (ms)
Description: as §3, §5, §4

WR19L (mouse, lymphoma) = assay: Cell growth inhibition assay, WR19L; type: cell-based; conditions: five days of incubation, XTT; read-out: IC50 WR19L (ms)
Description: as §3, §5, §4

[18] = test system: panel of human and mouse lymphoma cell lines; assay: Cell growth inhibition, whole lymphoma panel (mean IC50, mean rank); type: cell-based; conditions: mean over six lymphoma cell lines
Description: as §3, §4
In vitro potency was assessed using eight exemplary compounds against a panel of human and mouse lymphoma cell lines (Table 4). […] To compare the efficacy of the compounds in cell growth inhibition across the entire panel of cell lines screened, the eight compounds were ranked according to efficacy against each cell line with a numerical value of one indicating most efficacious (lowest IC50 value) and eight being the least efficacious (highest IC50 value).

[19] = NCI screen; cited from earlier work

IC50 [1] | IC50 [3] | IC50 [5] | IC50 [6] | IC50 [7] | IC50 (leukemia cells HL60) | IC50 [8] | IC50 [9] | IC50 [10] | IC50 [11] | IC50 [12] | IC50 [13] | IC50 [15] | IC50 [16] | IC50 (EL4 (mouse, lymphoma)) | IC50 (P388D1 (mouse, lymphoma)) | IC50 [17] | IC50 (WR19L (mouse, lymphoma)) | IC50 [18] | Compound | IC50 [4] | further results
127 nM | 170 nM | 150 nM | 180 nM | 300 nM | 170 nM | 190 nM | 180 nM | 390 nM | 170 nM | 170 nM | 160 nM | 54 nM | 58 nM | 486 nM | 243 nM | 6.4 nM | 5.8 nM | 142 nM | FC1(F)Oc2ccc(-c3nc4c5cccnc5c5ncccc5c4[nH]3)cc2O1 [Compound 4] | 26 nM | IC50 [2]: 170 nM; IC50 ([14]; Homo sapiens, EKVX, 120 h): 160 nM
170 nM | 180 nM | 170 nM | 230 nM | 220 nM | 150 nM |  | 154 nM | 390 nM | 170 nM |  |  | 197 nM | 139 nM | 451 nM | 377 nM | 4.2 nM | 59 nM | 205 nM | FC1(F)Oc2ccc(-c3nc4c5cccnc5c5ncccc5c4[nH]3)cc2O1 [Compound 3] |  | 
130 nM | 200 nM | 180 nM | 280 nM | 170 nM | 110 nM | 90 nM | 180 nM | 190 nM | 170 nM | 210 nM | 140 nM | 109 nM | 75 nM | 518 nM | 414 nM | 12.6 nM | 9.3 nM | 190 nM | FC1(F)Oc2ccc(-c3nc4c5cccnc5c5ncccc5c4[nH]3)cc2O1 [Compound 5] | 28 nM | IC50 [14]: 150 nM
 |  |  |  |  |  |  |  |  |  |  |  |  |  |  |  |  |  |  | c1ccc2c(-c3nc4ccccc4[nH]3)cccc2c1 [NCI #144033] |  | activity in the In Vivo Anticancer Drug Screen [19]: None of these three compounds showed any activity
170 nM | 180 nM | 220 nM | 220 nM | 300 nM | 380 nM |  | 180 nM | 430 nM | 170 nM |  |  | 166 nM | 150 nM | 384 nM | 400 nM | 5.1 nM | 31 nM | 189 nM | FC1(F)Oc2ccc(-c3nc4c5cccnc5c5ncccc5c4[nH]3)cc2O1 [Compound 2] |  | 
38 nM | 200 nM | 130 nM | 180 nM | 170 nM | 50 nM | 36 nM | 180 nM | 210 nM | 30 nM | 30 nM | 160 nM | 32 nM | 18 nM | 57 nM | 52 nM | 4.2 nM | < 2.6 nM | 28 nM | FC1(F)Oc2ccc(-c3nc4c5cccnc5c5ncccc5c4[nH]3)cc2O1 [Compound 6] | 26 nM | IC50 [2]: 30 nM; IC50 [14]: 170 nM
203 nM | 210 nM | 150 nM | 583 nM | 285 nM | 110 nM |  | 190 nM | 710 nM | 160 nM |  |  | 25 nM | 34 nM | 199 nM | 146 nM | 3 nM | 5.1 nM | 69 nM | FC1(F)Oc2ccc(-c3nc4c5cccnc5c5ncccc5c4[nH]3)cc2O1 [Compound 8] |  | 
23 nM | 40 nM | 30 nM | 400 nM | 390 nM | 30 nM | 190 nM | 40 nM | 200 nM | 170 nM | 150 nM | 320 nM | 112 nM | 83 nM | 470 nM | 209 nM | 7.6 nM | 12 nM | 149 nM | FC1(F)Oc2ccc(-c3nc4c5cccnc5c5ncccc5c4[nH]3)cc2O1 [Compound 7] | 110 nM | IC50 [2]: 160 nM; IC50 [14]: 220 nM
 |  |  |  |  |  |  |  |  |  |  |  |  |  |  |  |  |  |  | CN(C)c1ccc(-c2nc3c4ccccc4c4ccccc4c3[nH]2)cc1 [NCI #322334] |  | activity in the In Vivo Anticancer Drug Screen [19]: None of these three compounds showed any activity
